Measurements: PubChem BioAssay AID328 (DTP/NCI, 2004)
Several values for one entry are separate records, joined by “and”; a condition that tells them apart may be missing. Identical values can stand only once. Toxic doses and inconclusive results are not listed.

System: BDF1 mice, P388 leukemia ip, median survival T/C
Experiment: NCI In Vivo Anticancer Drug Screen. Data for tumor model P388 Leukemia (intraperitoneal) in B6D2F1 (BDF1) mice
Details: endpoint: median survival time, higher = longer survival
How it was run: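 Steps: implant the tumour, treat one group with compound and another with vehicle, record survival, then divide treated by control.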

[1] = dose: 100.0 mg/kg/injection, schedule: Q04DX003 (ip), vehicle: Klucel (hydroxypropylcellulose) (HPC)
[2] = dose: 150.0 mg/kg/injection, schedule: Q01DX009 (ip), vehicle: Klucel (hydroxypropylcellulose) (HPC)
[3] = dose: 200.0 mg/kg/injection, schedule: Q04DX003 (ip), vehicle: Klucel (hydroxypropylcellulose) (HPC)
[4] = dose: 400.0 mg/kg/injection, schedule: Q04DX003 (ip), vehicle: Klucel (hydroxypropylcellulose) (HPC)

O=C1CN(CCN2CC(=O)NC(=O)C2)CC(=O)N1 was tested, and the T/C (dose: 3.12 mg/kg/injection, schedule: Q03HX024 (ip), vehicle: steriod suspending solution) was 105 % of control, the T/C (dose: 6.25 mg/kg/injection, schedule: Q03HX024 (ip), vehicle: steriod suspending solution) was 117 % of control and the T/C (dose: 12.5 mg/kg/injection, schedule: Q01DX009 (ip), vehicle: steriod suspending solution) was 94 % of control. For the same compound, the T/C (dose: 12.5 mg/kg/injection, schedule: Q03HX024 (ip), vehicle: steriod suspending solution) was 152 % of control, the T/C (dose: 15.0 mg/kg/injection, schedule: Q01DX010 (ip), vehicle: saline) was 314 % of control and 222 % of control and the T/C (dose: 25.0 mg/kg/injection, schedule: Q01DX009 (ip), vehicle: steriod suspending solution) was 105 % of control. The T/C (dose: 25.0 mg/kg/injection, schedule: Q03HX024 (ip), vehicle: steriod suspending solution) was 152 % of control, the T/C (dose: 30.0 mg/kg/injection, schedule: Q01DX010 (ip), vehicle: saline) was 272 % of control and 176 % of control and the T/C (dose: 50.0 mg/kg/injection, schedule: Q03HX024 (ip), vehicle: steriod suspending solution) was 123 % of control. The T/C (dose: 60.0 mg/kg/injection, schedule: Q01DX010 (ip), vehicle: saline) was 118 % of control and 219 % of control, the T/C (dose: 100.0 mg/kg/injection, schedule: Q01DX001 (ip), vehicle: steriod suspending solution) was 100 % of control and the T/C (dose: 100.0 mg/kg/injection, schedule: Q01DX009 (ip), vehicle: steriod suspending solution) was 164 % of control. For the same compound, the T/C (dose: 100.0 mg/kg/injection, schedule: Q04DX003 (ip), vehicle: steriod suspending solution) was 105 % of control, the T/C (dose: 200.0 mg/kg/injection, schedule: Q01DX001 (ip), vehicle: steriod suspending solution) was 105 % of control and the T/C (dose: 200.0 mg/kg/injection, schedule: Q04DX003 (ip), vehicle: steriod suspending solution) was 111 % of control. The T/C (dose: 400.0 mg/kg/injection, schedule: Q01DX001 (ip), vehicle: steriod suspending solution) was 111 % of control, the T/C (dose: 800.0 mg/kg/injection, schedule: Q01DX001 (ip), vehicle: steriod suspending solution) was 117 % of control and the T/C (dose: 800.0 mg/kg/injection, schedule: Q04DX003 (ip), vehicle: steriod suspending solution) was 182 % of control.

For Cc1cc(NS(=O)(=O)c2ccccc2)ccc1NS(=O)(=O)c1ccccc1, the T/C (dose: 75.0 mg/kg/injection, schedule: Q01DX009 (ip), vehicle: Klucel (hydroxypropylcellulose) (HPC)) was 87 % of control, the T/C [1] was 104 % of control and the T/C [2] was 100 % of control. The T/C [3] was 100 % of control, the T/C (dose: 300.0 mg/kg/injection, schedule: Q01DX009 (ip), vehicle: Klucel (hydroxypropylcellulose) (HPC)) was 87 % of control and the T/C [4] was 95 % of control.

In the case of CSc1nc(SC)c2[nH]cnc2n1, the T/C (dose: 3.13 mg/kg/injection, schedule: Q01DX009 (ip), vehicle: saline with Tween-80) is reported as 87 % of control, the T/C (dose: 6.25 mg/kg/injection, schedule: Q01DX009 (ip), vehicle: saline with Tween-80) is reported as 99 % of control and the T/C (dose: 12.5 mg/kg/injection, schedule: Q01DX009 (ip), vehicle: saline with Tween-80) is reported as 91 % of control. For the same compound, the T/C (dose: 25.0 mg/kg/injection, schedule: Q01DX009 (ip), vehicle: saline with Tween-80) was 94 % of control.

With N#C/C(=C1C=C(Br)/C(=N\O)C=C\1Cl)c1ccc(Cl)cc1 the T/C (dose: 25.0 mg/kg/injection, schedule: Q01DX009 (ip), vehicle: Klucel (hydroxypropylcellulose) (HPC)) was 115 % of control, the T/C (dose: 50.0 mg/kg/injection, schedule: Q01DX009 (ip), vehicle: Klucel (hydroxypropylcellulose) (HPC)) was 110 % of control and the T/C (dose: 100.0 mg/kg/injection, schedule: Q01DX009 (ip), vehicle: Klucel (hydroxypropylcellulose) (HPC)) was 115 % of control and 123 % of control. The T/C [1] was 100 % of control, the T/C [2] was 109 % of control and the T/C (dose: 200.0 mg/kg/injection, schedule: Q01DX009 (ip), vehicle: Klucel (hydroxypropylcellulose) (HPC)) was 123 % of control. For the same compound, the T/C [3] was 118 % of control, the T/C (dose: 225.0 mg/kg/injection, schedule: Q01DX009 (ip), vehicle: Klucel (hydroxypropylcellulose) (HPC)) was 109 % of control and the T/C [4] was 113 % of control.

c1ccc(Cn2ccnc2C2OCCO2)cc1 was tested, and the T/C (dose: 6.25 mg/kg/injection, schedule: Q01DX009 (ip), vehicle: water) was 95 % of control, the T/C (dose: 12.5 mg/kg/injection, schedule: Q01DX009 (ip), vehicle: water) was 88 % of control and the T/C (dose: 12.5 mg/kg/injection, schedule: Q04DX003 (ip), vehicle: water) was 104 % of control. The T/C (dose: 25.0 mg/kg/injection, schedule: Q04DX003 (ip), vehicle: water) was 101 % of control, the T/C (dose: 50.0 mg/kg/injection, schedule: Q01DX009 (ip), vehicle: water) was 112 % of control and the T/C (dose: 50.0 mg/kg/injection, schedule: Q04DX003 (ip), vehicle: water) was 107 % of control. For the same compound, the T/C (dose: 100.0 mg/kg/injection, schedule: Q01DX009 (ip), vehicle: water) was 93 % of control, the T/C (dose: 100.0 mg/kg/injection, schedule: Q04DX003 (ip), vehicle: water) was 92 % of control and the T/C (dose: 200.0 mg/kg/injection, schedule: Q01DX009 (ip), vehicle: water) was 87 % of control.
